Test results reported in PMC10794144, “A novel antibiotic class targeting the lipopolysaccharide transporter” (Nature, 2024).

Experiment: Human plasma precipitation assay
Parameters: key: 0: none; 1: mild; 2: moderate; 3: marked
Settings: observed only at 2 mg/mL (0.125–2 mg/mL tested)
Procedure: For the plasma precipitation assay, test item formulations of compounds were diluted as follows with the vehicle (0.9% aqueous sodium chloride solution): undiluted, 1:2, 1:4, 1:8 and 1:16. These serial dilutions were then added into test tubes containing 0.5 ml of plasma to give a final assay volume of 1 ml with a final concentration of 4 mg ml^−1 assay volume or less. After centrifugation of the samples (1,811g; 10 min; at room temperature), plasma precipitation was visually determined by scoring the resulting pellet (score: 0, none; 1, mild; 2, moderate; 3, marked).

Question: For `CN1C(=O)[C@H](CCCCN)NC(=O)[C@H](CCCN)NCc2cccnc2Sc2cccc(-c3ccc(C(=O)O)cc3)c2CNC(=O)[C@@H]1Cc1c[nH]c2ccccc12` [zosurabalpin], which Precipitation score is on record?
Answer: Its Precipitation score is “Observed only at 2 mg/mL^6 (1)”.
